Measurements published in patent publication US6461997B1, “Triazole sulfones having herbicidal activity” (Monsanto Technology LLC, priority 1999, dated 2002).

Tests used:
[1] = test system: SETFA (giant foxtail); test: Pre-emergence herbicidal activity, warm season; type: in vivo, Setaria faberi; details: GR80 = lowest tested rate (300, 100, 30, 10 g/ha) with 80% or greater inhibition; approx. 14 days after treating; 30/21° C.
In short: (§1)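 GR80 values derive from percent inhibition relative to untreated plants, read roughly 14 days after sowing and pre-emergence soil-surface treatment (compound in 50:50 acetone/water; rates typically 10, 30, 100, 300 g/ha). Warm-season weeds grew at 30/21° C day/night, cool-season ones at 18/13° C; an asterisk marks activity without reaching 80% at the highest rate.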

[2] = test system: oilseed rape (BRSNS); test: Selectivity test, PPI, cool season crop; type: in vivo, Brassica napus; details: Brassica napus, PPI application, read-out: Percent inhibition BRSNS
Experimental: (§2) A pre-prepared topsoil mixture (described above) was placed in a pot and compacted to a depth of 1.0 to 1.25 cm from the top of the pot. Seeds of each of several monocotyledonous and dicotyledonous annual plant species were placed on top of the soil. A sufficient quantity of soil to cover the seeds and level fill the pot was weighed into an open container. A known amount of the test compound was dissolved or suspended in an organic solvent and applied by spraying to this cover soil. The cover soil was thoroughly mixed to distribute the test compound throughout the cover soil, and was then applied as a cover layer over the seeds. Untreated soil was used as a cover layer for control pots. After treatment the plants were placed in a greenhouse where they received 0.64 cm of overhead irrigation. All subsequent watering consisted of a light overhead mist and/or subirrigation as needed for germination and growth. Tables 9 and 10 below relate to warm season plant species which were placed after pre-emergence treatment in a greenhouse with a 30/21° C. day/night temperature regime. Tables 11 and 12 below relates to cool season plant species placed after pre-emergence treatment in a greenhouse or growth chamber with an 18/13° C. day/night temperature regime. Only the compounds of Examples 1, 6, 8, 11, 13 and 15-20 were included in PPI tests.
(§3) Approximately 14 days after planting and treating, the plants were observed and herbicidal efficacy recorded as percent inhibition by comparison with untreated plants.
(§4) Additional pre-emergence and PPI tests were conducted by the procedures described above, on warm and cool season weed species in the presence of crop species, to assess herbicidal selectivity. Crop species included in warm season tests were corn (Zea mays, ZEAMX), rice (Oryza sativa, ORYSA) and soybean (Glycine max, GLYMX). Crop species included in cool season tests were wheat (Triticum aestivum, TRZAW), barley (Hordeunm vulgare, HORVX) and oilseed rape (Brassica napus, BRSNS).
(§5) Tables 15 and 16 relate to pre-emergence and PPI tests respectively on warm season species. Table 17 relates to pre-emergence tests on cool season species.

[3] = test system: AGSST (creeping bentgrass); test: Pre-plant incorporated (PPI) herbicidal activity, cool season; type: in vivo, Agrostis stolonifera; details: for inhibition at 10 g/ha / inhibition at 30 g/ha / inhibition at 100 g/ha / inhibition at 300 g/ha / inhibition at 900 g/ha: Agrostis stolonifera, weed, PPI application, read-out: Percent inhibition AGSST; for PPI activity GR80, AGSST: pre-plant incorporated, lowest tested rate with 80% or greater inhibition, about 14 days
Experimental: (§6) In another set of tests, the pre-plant incorporated (PPI) activity of compounds of this invention was evaluated on the same species as for the pre-emergence tests described above. In the PPI tests the following procedure, designed to simulate PPI application, was used.
as §2, §3

[4] = test system: SINAR (wild mustard); test: as above; type: in vivo, Sinapis arvensis; details: for PPI activity GR80, SINAR: pre-plant incorporated, lowest tested rate with 80% or greater inhibition, about 14 days
Experimental: as §6, §2, §3

[5] = test system: SASKR (russian thistle); test: as above; type: in vivo, Salsola kali; details: for inhibition at 10 g/ha / inhibition at 30 g/ha / inhibition at 100 g/ha / inhibition at 300 g/ha / inhibition at 900 g/ha: Salsola kali, weed, PPI application, read-out: Percent inhibition SASKR; for PPI activity GR80, SASKR: pre-plant incorporated, lowest tested rate with 80% or greater inhibition, about 14 days
Experimental: as §6, §2, §3

[6] = test system: GALAP (catchweed bedstraw); test: Pre-emergence herbicidal activity, cool season; type: in vivo, Galium aparine; details: lowest tested rate with 80% or greater inhibition; rates 300, 100, 30, 10 g/ha; about 14 days
In short: as §1

[7] = test system: VERPE (creeping speedwell); test: Pre-plant incorporated (PPI) herbicidal activity, cool season; type: in vivo, Veronica persicaria; details: for PPI activity GR80, VERPE: pre-plant incorporated, lowest tested rate with 80% or greater inhibition, about 14 days; for inhibition at 10 g/ha / inhibition at 30 g/ha / inhibition at 100 g/ha / inhibition at 300 g/ha / inhibition at 900 g/ha: weed, PPI application, read-out: Percent inhibition VERPE
Experimental: as §6, §2, §3

[8] = test system: rice (ORYSA); test: Selectivity test, PPI, warm season crop; type: in vivo, Oryza sativa; details: Oryza sativa, PPI application, read-out: Percent inhibition ORYSA
Experimental: as §2, §3, §4, §5

[9] = test system: BRAPP (broadleaf signalgrass); test: Pre-emergence herbicidal activity, warm season; type: in vivo, Brachiaria platyphylla; details: GR80 = lowest tested rate (300, 100, 30, 10 g/ha) with 80% or greater inhibition; approx. 14 days after treating; 30/21° C.
In short: as §1

[10] = test system: POROL (common purslane); test: Pre-emergence herbicidal activity, warm season; type: in vivo, Portulaca oleracea; details: GR80 = lowest tested rate (300, 100, 30, 10 g/ha) with 80% or greater inhibition; approx. 14 days after treating; 30/21° C.
In short: as §1

[11] = Brassica, weed, PPI application, read-out: Percent inhibition SINAR

Row | Compound | Pre-emergence activity (GR80) SETFA [1] | inhibition at 10 g/ha [2] | inhibition at 30 g/ha [2] | inhibition at 300 g/ha [2] | inhibition at 900 g/ha [2] | inhibition at 10 g/ha [3] | inhibition at 30 g/ha [3] | inhibition at 100 g/ha [3] | inhibition at 300 g/ha [3] | inhibition at 900 g/ha [3] | PPI activity GR80, AGSST [3] | inhibition at 10 g/ha [4, 11] | inhibition at 100 g/ha [4, 11] | inhibition at 300 g/ha [4, 11] | inhibition at 900 g/ha [4, 11] | PPI activity GR80, SINAR [4] | inhibition at 10 g/ha [5] | inhibition at 30 g/ha [5] | inhibition at 100 g/ha [5] | inhibition at 300 g/ha [5] | other results
1 | C=C(C)CC(F)(F)S(=O)(=O)c1ncn(C(=O)N(CC)CC)n1 [Example 18] | 100 g/ha | 0% | 0% | 20% | 100% | 100% | 60% | 100% | 99% | 100% | 10 g/ha | 100% | 80% | 100% | 100% | 10 g/ha | 0% | 0% | 80% | 80% | inhibition at 30 g/ha ([4]; Brassica, weed, PPI application, 30 g/ha, read-out: Percent inhibition SINAR): 100%; inhibition at 900 g/ha [5]: 100%; PPI activity GR80, SASKR [5]: 30 g/ha; Pre-emergence activity GR80, GALAP [6]: 300 g/ha; PPI activity GR80, VERPE [7]: [empty]; inhibition at 10 g/ha [7]: 0%; inhibition at 30 g/ha [7]: 20%; inhibition at 100 g/ha [7]: 80%; inhibition at 300 g/ha [7]: 95%; inhibition at 900 g/ha [7]: 99%; inhibition at 10 g/ha [8]: 0%; inhibition at 30 g/ha [8]: 0%; inhibition at 100 g/ha [8]: 0%; inhibition at 300 g/ha ([8]; 300 g/ha): 15%; inhibition at 900 g/ha [8]: 10%; Pre-emergence activity (GR80) BRAPP [9]: 300 g/ha; Pre-emergence activity (GR80) POROL [10]: 100 g/ha
2 | C=C(Br)CC(F)(F)S(=O)(=O)c1ncn(C(=O)N(CC)CC)n1 [Example 19] | 300 g/ha | 0% | 0% | 60% | 95% | 60% | 90% | 100% | 90% | 100% | 10 g/ha | 100% | 100% | 100% | 100% | 300 g/ha | 0% | 0% | 0% | 60% | inhibition at 100 g/ha ([2]; 100 g/ha): 0%; inhibition at 900 g/ha [5]: 95%; PPI activity GR80, SASKR [5]: 30 g/ha; Pre-emergence activity GR80, GALAP [6]: 300 g/ha; PPI activity GR80, VERPE [7]: [empty]; inhibition at 10 g/ha [7]: 0%; inhibition at 30 g/ha [7]: 40%; inhibition at 100 g/ha [7]: 20%; inhibition at 300 g/ha [7]: 20%; inhibition at 900 g/ha [7]: 99%; inhibition at 10 g/ha [8]: 0%; inhibition at 30 g/ha [8]: 0%; inhibition at 100 g/ha [8]: 0%; inhibition at 900 g/ha [8]: 20%; Pre-emergence activity (GR80) BRAPP [9]: 300 g/ha; Pre-emergence activity (GR80) POROL [10]: 300 g/ha
